In US20060182722A1, “Methods and materials for isolating isogenic islet cells” (priority 2005, published 2006):
Several values for one entry are separate records, joined by “and”; a condition that tells them apart may be missing. Equal values may be shown once.

Legend:
[1] = Example 3: immunosuppressant whole blood trough levels; assay type: in vivo, human; settings: for Drug Exposure: whole blood trough levels, individual recipients #1-#8
Protocol: Maintenance immunosuppression was initiated with sirolimus (0.2 mg/kg starting on day −2, followed by 0.1 mg/kg daily; target whole blood trough levels 5 to 15 ng/mL, as tolerated), and reduced-dose tacrolimus (0.015 mg/kg twice daily, starting on day +1; target whole blood trough levels 3 to 6 ng/mL). At 1 month posttransplant, tacrolimus was gradually replaced with mycophenolate mofetil (MMF; 750 to 1000 mg, twice daily); tacrolimus was either discontinued or dosed to a target trough level of <3 ng/mL. If target levels of sirolimus could not be achieved or maintained, however, tacrolimus (target level, 3 to 6 ng/mL) was continued.
The 5 recipients received daily MMF doses of 1.5 to 2.0 g. They either (a) achieved and maintained sirolimus trough levels >9 ng/mL, with tacrolimus trough levels of 0 to <3 ng/mL, or (b) in the absence of target sirolimus trough levels, tacrolimus trough levels of 3 to 6 ng/mL. The 3 recipients who resumed exogenous insulin therapy had received ≧1.5 g/day of MMF but had subtherapeutic sirolimus trough levels (<9 ng/mL) in the absence of measurable tacrolimus trough levels (<3 ng/mL). Please see Table 5 for immunosuppression.

[2] = tested on: type 1 diabetic recipients; assay: Example 3: safety assessments; assay type: in vivo, human; settings: of 8 recipients; resolved or improved with dose reduction
Protocol: Safety was assessed by monitoring the severity and duration of adverse events. Efficacy was assessed by studying the recipients' insulin requirements, C-peptide levels, oral and intravenous glucose tolerance results, intravenous arginine stimulation responses, and HbA1c levels. Safety Assessments. Recipients underwent clinical, laboratory, and diagnostic safety assessments daily during their transplant hospitalization and at each of their 19 posttransplant study visits. Portal pressure was monitored during the transplant procedure. On days +1 and +7, ultrasonographic examination was done of the right upper quadrant including Doppler examination of the portal venous system. The severity and duration of any adverse events were monitored and recorded. Laboratory tests assessed hematology, chemistry, liver transaminases, lipids, standard creatinine clearance, and urinary albumin excretion. Adverse events were graded per the National Cancer Institute's Common Toxicity Criteria, Version 2.0.

[3] = Example 4: sirolimus whole blood trough concentration; assay type: in vivo, human
Protocol: Immunosuppression. […] On days 0 through +9 posttransplant, they received a daily 4-mg dose. […] The doses were based on those previously used to treat kidney graft rejection (Woddle et al., Transplantation 1999; 68:608-616). Premedication was with acetaminophen, diphenhydramine, and pentoxifylline. Sirolimus (Rapamune, Wyeth-Ayerst) was initiated orally at a dose of 0.2 mg/kg on day −2, followed by 0.1 mg/kg daily; the dose then was titrated and adjusted to achieve a target whole blood trough level of 5 to 10 ng/mL. Mean trough concentration prior to transplant on day 0 was 6.1±1.7 ng/mL and on day +2 was 6.7±1.9 ng/mL. Reduced-dose tacrolimus (Prograf, Fujisawa) was administered orally to all islet recipients beginning on […] posttransplant at 0.015 mg/kg 2 times per day; the dose was then adjusted to achieve a target whole blood trough level of 3 to 6 ng/mL (Shapiro et al., New Engl. J. Med. 2000; 343:230-238).

T1D patients = assay: Example 4: safety assessments; set-up: species or system human; settings: in vivo
Description: Safety assessments. Recipients underwent clinical, laboratory, and diagnostic safety assessments. Daily during their transplant hospitalization and at each of their 23 posttransplant study visits, the severity and duration of any adverse events were monitored and recorded. Laboratory tests included hematology, chemistry, liver transaminases, lipids, standard creatinine clearance, and urinary albumin excretion. Adverse events were graded based on the National Cancer Institute's Common Toxicity Criteria, Version 2.0.

CD3 = target: T1, CD3 (Homo sapiens, UniProt P07766); assay: Monitoring hOKT3γ1 (Ala-Ala): coating of the CD3 molecule on PBLs; assay type: in vivo; settings: table: individual subjects #1-#6, text: mean
T1 construct: endogenous in cells; host or cells: peripheral blood lymphocytes (PBLs) of the treated patients
T1 sequence (P07766 23-207): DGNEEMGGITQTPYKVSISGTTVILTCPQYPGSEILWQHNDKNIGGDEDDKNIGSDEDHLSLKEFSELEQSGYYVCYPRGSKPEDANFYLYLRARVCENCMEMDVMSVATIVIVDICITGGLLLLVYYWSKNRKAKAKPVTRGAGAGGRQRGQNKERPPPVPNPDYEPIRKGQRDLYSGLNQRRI
T1 sequence (P09693 23-182 partner): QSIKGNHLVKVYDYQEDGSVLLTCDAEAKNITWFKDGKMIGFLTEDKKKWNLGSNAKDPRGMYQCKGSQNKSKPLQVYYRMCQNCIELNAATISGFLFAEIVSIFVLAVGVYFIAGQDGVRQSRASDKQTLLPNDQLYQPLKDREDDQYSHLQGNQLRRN
T1 sequence (P04234 22-171 partner): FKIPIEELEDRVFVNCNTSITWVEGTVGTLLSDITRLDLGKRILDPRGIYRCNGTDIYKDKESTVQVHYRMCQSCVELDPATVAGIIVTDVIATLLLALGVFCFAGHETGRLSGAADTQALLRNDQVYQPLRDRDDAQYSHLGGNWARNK
T1 sequence (P20963 22-164 partner): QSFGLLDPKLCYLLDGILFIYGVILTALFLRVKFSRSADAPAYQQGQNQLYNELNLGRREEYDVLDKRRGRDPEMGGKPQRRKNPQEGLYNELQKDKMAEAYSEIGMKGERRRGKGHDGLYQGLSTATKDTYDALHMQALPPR
Description: (§1) Monitoring hOKT3γ1 (Ala-Ala). Flow cytometry was used to enumerate CD2^+, CD4^+, CD8^+, CD25^+, and CD69^+ T cells. […] Anti-idiotype antibodies were identified by ELISA, by the use of plate-bound OKT3, or by flow cytometry, in order to measure the blockade of binding of OKT3 fluorescein isothiocyanate to CD3 (Chatenoud, Transplant Proc. 1993; 25:68-73).

[4] = tested on: autoreactive and alloreactive T cell responses; settings: clinical; cited from earlier work
[5] = tested on: serum cytokines (IL-10, TNF-α); assay: Serum cytokines before and after hOKT3γ1 (Ala-Ala); assay type: in vivo, human
[6] = Anti-idiotype antibodies by ELISA; assay type: in vivo, human; settings: all recipients treated
Description: as §1

[7] = Monitoring hOKT3γ1 (Ala-Ala): serum levels; assay type: in vivo, human; settings: table: individual subjects #1-#6, text: mean; for Peak hOKT3γ1 (Ala-Ala) level achieved: serum
Description: as §1

[8] = the 3 recipients who resumed exogenous insulin therapy

C=CC[C@@H]1/C=C(\C)C[C@H](C)C[C@H](OC)[C@H]2O[C@@](O)(C(=O)C(=O)N3CCCC[C@H]3C(=O)O[C@H](/C(C)=C/[C@@H]3CC[C@@H](O)[C@H](OC)C3)[C@H](C)[C@@H](O)CC1=O)[C@H](C)C[C@@H]2OC [Tacrolimus, tacrolimus]
Trough levels [1, 8]: < 3 ng/mL | Drug Exposure [1]: 0 ng/ml (2×) and 4-5 ng/ml and 4-6 ng/ml and <3 ng/ml and 3 ng/ml

COc1c(C)c2c(c(O)c1C/C=C(\C)CCC(=O)OCCN1CCOCC1)C(=O)OC2 [MMF, mycophenolate mofetil]
Recipients with transient diarrhea after beginning MMF therapy [2]: 6

CO[C@H]1C[C@@H]2CC[C@@H](C)[C@@](O)(O2)C(=O)C(=O)N2CCCC[C@H]2C(=O)O[C@H]([C@H](C)C[C@@H]2CC[C@@H](O)[C@H](OC)C2)CC(=O)[C@H](C)/C=C(\C)[C@@H](O)[C@@H](OC)C(=O)[C@H](C)C[C@H](C)/C=C/C=C/C=C/1C [Sirolimus, sirolimus]
Mean trough concentration ([3]; day +2): 6.7 ± 1.9 ng/mL | Mean trough concentration ([3]; prior to transplant on day 0): 6.1 ± 1.7 ng/mL | Trough levels ([1]; recipients with sustained insulin independence, case (a)): > 9 ng/mL | Trough levels [1, 8]: < 9 ng/mL | Drug Exposure [1]: 4-8 ng/ml and >9 ng/ml (3×) and 2-3 ng/ml and 7-9 ng/ml and 4-9 ng/ml and 6-8 ng/ml

C[C@@H]1[C@H](O)[C@@H](C)/C=C/C=C/CC/C=C/C=C/C=C/C=C/C(O[C@H]2O[C@H](C)[C@@H](O)[C@H](N)[C@@H]2O)CC2O[C@](O)(CC(O)C(O)CCC(O)CC(O)CC(O)CC(=O)O[C@H]1C)CC(O)C2C(=O)O (stereo partly shown) [nystatin]
Serious adverse event determined to be related to treatment (T1D patients): generalized rash

hOKT3γ1 (Ala-Ala): humanized anti-CD3 antibody retaining the binding region of OKT3; human IgG1 Fc mutated to prevent binding to the Fc receptor
Duration >80% CD3 coating (Total # of days) (CD3): 4.8 ± 2.6 days | Time to 80% CD3 coating (# of days) (CD3): 7.3 ± 2.9 days | Duration >80% CD3 coating (Total # of days) (CD3; listed as hOKT3γ1 (Ala—Ala)): 4 days (2×) and 3 days and 2 days and 8 days (2×) | Time to 80% CD3 coating (# of days) (CD3; listed as hOKT3γ1 (Ala—Ala)): 9.5 days and 8.5 days and 11.5 days and 4.5 days (2×) and 5.5 days | Kidney graft rejection [4]: reversed kidney graft rejection | Side effects compared with the parental OKT3 antibody [4]: markedly fewer side effects | Mean peak serum TNF-α after administration ([5]; 29.9±31.7 pg/mL prior to administration): 267.6 ± 120.3 pg/mL | Serum IL-10 levels after administration compared with pre-dosing levels ([5]; all participants): increased in all participants | Anti-idiotype antibodies [6]: Absence of anti-idiotype antibodies | Peak hOKT3γ1 (Ala-Ala) level achieved [7]: 1196 ± 821 ng/mL | Peak hOKT3γ1 (Ala-Ala) level achieved ([7]; listed as hOKT3γ1 (Ala—Ala)): 872 ng/mL and 450 ng/mL and 1028 ng/mL and 736 ng/mL and 2761 ng/mL and 1330 ng/mL | Days to negative hOKT3γ1 (Ala-Ala) level after last dose [7]: 61 ± 32 days | Days to negative hOKT3γ1 (Ala-Ala) level after last dose ([7]; listed as hOKT3γ1 (Ala—Ala)): 91 days and 111 days and 47 days and 50 days and 33 days and 34 days
